Experimental data published in patent US10149839B2, “Chemical compounds” (AstraZeneca AB, priority 2016, dated 2018).
Values after ≈ are worked out from the molar mass of the structure shown.

Legend:
[1] = Human hepatocyte assay (metabolic stability); format: in vitro ADME; settings: cryopreserved pooled human hepatocytes (LiverPool 10 Donor), in vitro intrinsic clearance
[2] = molecular target: T1, Estrogen Receptor (ERα) in MCF-7 cells (Homo sapiens (Human), UniProt P03372); experiment: MCF-7 ER down-regulation assay (immuno-fluorescence); format: cell-based; settings: 18-22 hours incubation
[3] = physchem; settings: 1-octanol/aqueous buffer, pH 7.4
[4] = Human plasma protein binding (equilibrium dialysis); format: in vitro ADME; settings: dialysis 18 hours
[5] = Thermodynamic solubility (shake flask); format: physicochemical; settings: aqueous phosphate buffer, 25 °C, pH 7.4, aqueous buffer, thermodynamic from solid, aqueous phosphate buffer pH 7.4, 24 hours
[6] = molecular target: T1, Estrogen Receptor (ERα) in MCF-7 cells; experiment: Western blotting assay, MCF-7 cells; format: cell-based; settings: compound 100 nM, 48 h, normalised to 100 nM fulvestrant (100%)
[7] = Human Caco-2 passive permeability A to B Papp; format: in vitro ADME; settings: apical pH 6.5, basolateral pH 7.4, with efflux transporter inhibitor cocktail
[8] = Human Caco-2 bidirectional permeability A to B and B to A; format: in vitro ADME
[9] = molecular target: estrogen receptor (ERα) in CAMA-1 cells (Homo sapiens (Human), UniProt P03372); experiment: Western blotting assay, CAMA-1 cells; format: cell-based; settings: compound 100 nM, 48 h, normalised to 100 nM fulvestrant (100%)
estrogen receptor (ERα) in CAMA-1 cells, sequence (P03372 whole entry): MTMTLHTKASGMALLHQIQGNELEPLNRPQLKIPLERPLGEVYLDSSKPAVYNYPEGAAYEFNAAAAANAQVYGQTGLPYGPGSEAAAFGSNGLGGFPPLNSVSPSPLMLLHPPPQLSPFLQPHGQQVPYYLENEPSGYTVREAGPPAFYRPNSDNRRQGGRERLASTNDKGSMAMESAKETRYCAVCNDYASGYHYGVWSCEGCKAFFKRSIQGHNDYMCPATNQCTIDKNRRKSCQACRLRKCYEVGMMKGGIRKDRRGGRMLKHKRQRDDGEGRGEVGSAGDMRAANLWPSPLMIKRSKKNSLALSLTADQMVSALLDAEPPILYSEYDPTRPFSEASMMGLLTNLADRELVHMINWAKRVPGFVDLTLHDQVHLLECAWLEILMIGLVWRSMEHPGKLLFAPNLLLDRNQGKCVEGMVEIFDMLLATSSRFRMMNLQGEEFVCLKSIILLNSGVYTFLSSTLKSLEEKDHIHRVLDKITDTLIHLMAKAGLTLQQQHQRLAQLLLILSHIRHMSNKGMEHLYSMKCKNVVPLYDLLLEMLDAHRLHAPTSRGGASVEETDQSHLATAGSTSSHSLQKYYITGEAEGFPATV

T1 sequence (P03372 whole entry): as above

hepatocyte CLint at 1 µM [1] [µL/min/1e6 cells] | IC50 [2] [nM] | logD [3] | Human plasma protein binding (% free) [4] [% free] | solubility at 24 h [5] [µM] | MCF7 Western % ER deg vs Fv [6] [%] | Papp at 2 h [7] [×10⁻⁶ cm/s] | Papp at 2 h ([8]; Caco-2, 2 hours, pH 7.4) [×10⁻⁶ cm/s] | efflux ratio at 2 h ([8]; Papp(B-A)/Papp(A-B), Caco-2, pH 7.4) | CAMA1 Western % ER deg vs Fv [9] [%] | SMILES
< 1 | 0.94 | 4.6 | 1.4 | 34 (≈ 15.5 µg/mL) |  |  |  |  |  | CC(C)CN1[C@H](c2ccc(OCCNCCC(F)F)cc2)c2[nH]c3ccccc3c2C[C@H]1C [Example 1, 3,3-difluoro-N-(2-(4-((1R,3R)-2-isobutyl-3-methyl-2,3,4,9-tetrahydro-1H-pyrido[3,4-b]indol-1-yl)phenoxy)ethyl)propan-1-amine]
5 | 1.2 | 3.4 | 2.0 | 135 (≈ 61.6 µg/mL) |  |  |  |  |  | C[C@@H]1Cc2c([nH]c3ccccc23)[C@@H](c2ccc(OCCNCCCF)cn2)N1CC(C)(C)F [Example 30, 3-fluoro-N-(2-((6-((1S,3R)-2-(2-fluoro-2-methylpropyl)-3-methyl-2,3,4,9-tetrahydro-1H-pyrido[3,4-b]indol-1-yl)pyridin-3-yl)oxy)ethyl)propan-1-amine]
5 | 0.17 | 2.7 | 5.8 | 854 (≈ 407 µg/mL) | 90 | 14 | 3.2 | 1.8 | 85 | COc1cc(OCCNCCCF)ncc1[C@@H]1c2[nH]c3ccccc3c2C[C@@H](C)N1CC(F)F [Example 40, N-(2-((5-((1R,3R)-2-(2,2-difluoroethyl)-3-methyl-2,3,4,9-tetrahydro-1H-pyrido[3,4-b]indol-1-yl)-4-methoxypyridin-2-yl)oxy)ethyl)-3-fluoropropan-1-amine]
< 1 | 0.43 | 3.6 | 1.5 | 301 (≈ 132 µg/mL) |  |  |  |  |  | CC(C)CN1[C@H](c2ccc(OCCNCCCF)cc2)c2[nH]c3ccccc3c2C[C@H]1C [Example 2, 3-fluoro-N-(2-(4-((1R,3R)-2-isobutyl-3-methyl-2,3,4,9-tetrahydro-1H-pyrido[3,4-b]indol-1-yl)phenoxy)ethyl)propan-1-amine]
